Experimental data taken from US6916803B2, “3-(Heteroaryl acetamido)-2-oxo-azetidine-1-sulfonic acids derivatives as antibacterial agents” (Pantherix, Ltd., priority 2000, dated 2005).
Converted amounts (≈) assume the structure as drawn. Where two headings read alike, the source gives them in different places.

Assays:
Assay in all cases: MIC, standard microbroth dilution method (NCCLS)
Type in all cases: cell-based
C. freundii K 500 = conditions: Citrobacter freundii, K500
Protocol: (§1) The compounds of the present invention were tested for minimum inhibitory concentration (MIC) against the bacteria listed in Table-1 according to the standard microbroth dilution method as described in NCCLS document. The minimum inhibitory concentration is expressed in μg/ml.

E. cloaacae S 480-2 = test system: E. cloaacae S 480-2
Protocol: as §1

E. coli TEM-2 = conditions: Escherichia coli, TEM2
Protocol: as §1

K pneumoniae K-1150 = test system: K pneumoniae K-1150
Protocol: as §1

M Morganii K 1250 = test system: M Morganii K 1250
Protocol: as §1

P. aeruginosa CL 1267 = conditions: Pseudomonas aeruginosa, CL1267
Protocol: as §1

P. aeruginosa PD 2721 = conditions: Pseudomonas aeruginosa, PD2721
Protocol: as §1

P. aeruginosa S 1598 = conditions: Pseudomonas aeruginosa, S1598
Protocol: as §1

| MIC (E. coli TEM-2; E. coli TEM-2, read-out: MIC) [µg/mL] | SMILES | MIC (C. freundii K 500) [µg/mL] | MIC (E. cloaacae S 480-2) [µg/mL] | MIC (E. coli TEM-2) [µg/mL] | MIC (K pneumoniae K-1150) [µg/mL] | MIC (M Morganii K 1250) [µg/mL] | MIC (P. aeruginosa CL 1267) [µg/mL] | MIC (P. aeruginosa PD 2721) [µg/mL] | MIC (P. aeruginosa S 1598) [µg/mL] |
| --- | --- | --- | --- | --- | --- | --- | --- | --- | --- |
| – | Nc1nc(/C(=N/OCc2cc(=O)c(O)cn2O)C(=O)NC2C(=O)N(S(=O)(=O)[O-])C2CF)cs1.[Na+] (stereo not drawn) [Example 3, 3-[2-(2-Aminothiazol-4-yl)-(Z)-2-{(1,5-dihydroxy-4-pyridon-2-yl-methoxy)imino}-acetamido]-4-fluoromethyl-2-azetidinone-1-sulfonic acid, sodium salt] | 0.5 | 2 | 0.06 | 0.06 | 0.06 | 0.06 | 32 | 0.13 |
| 0.06 (≈ 0.138 µM) | C[C@H]1[C@H](NC(=O)/C(=N\OC(C)(C)C(=O)O)c2csc(N)n2)C(=O)N1S(=O)(=O)O [Aztreonam, reference compound] | 0.13 (≈ 0.299 µM) | 0.13 (≈ 0.299 µM) | – | 0.06 (≈ 0.138 µM) | 0.06 (≈ 0.138 µM) | – | 64 (≈ 147 µM) | 32 (≈ 73.5 µM) |
| – | NC(=O)OCC1C(NC(=O)/C(=N\OCc2cc(=O)c(O)cn2O)c2csc(N)n2)C(=O)N1S(=O)(=O)[O-].[Na+] (stereo not drawn) [Example 2, 3-[2-(2-Aminothiazol-4-yl)-(Z)-2-{(1,5-dihydroxy-4-pyridon-2-ylmethoxy)imino}-acetamido]-4-carbamoyloxymethyl-2-azetidinone-1-sulfonic acid, sodium salt] | 0.5 | 0.25 | 0.06 | 0.06 | 0.13 | 0.06 | 128 | 0.13 |
| 0.06 (≈ 0.129 µM) | NC(=O)OC[C@@H]1[C@H](NC(=O)/C(=N\OCC(=O)O)c2csc(N)n2)C(=O)N1S(=O)(=O)O [Carumonam, reference compound] | 0.06 (≈ 0.129 µM) | 0.06 (≈ 0.129 µM) | – | 0.06 (≈ 0.129 µM) | 0.06 (≈ 0.129 µM) | 8 (≈ 17.2 µM) | 32 (≈ 68.6 µM) | 8 (≈ 17.2 µM) |
| – | C[C@H]1[C@H](NC(=O)/C(=N\OCc2cc(=O)c(O)cn2O)c2csc(N)n2)C(=O)N1S(=O)(=O)[O-].[Na+] [Example 1] | 0.13 | 0.06 | 0.06 | 0.13 | 0.06 | 0.06 | 4 | 0.13 |
